In the supplement of paper PMC10307832:

Columns and labels:
Assay in all cases: relative viability (nuclei count vs DMSO), 5 days (fraction); higher = more cells survive
Axitinib + Decitabine = compound: CNC(=O)c1ccccc1Sc1ccc2c(/C=C/c3ccccn3)n[nH]c2c1 [Axitinib] + Nc1ncn([C@H]2C[C@H](O)[C@@H](CO)O2)c(=O)n1 [Decitabine] (partner 2 µM)
Outline: (§1)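 Lung cancer cell lines were pin-tool dosed in 1536-well plates on the day after seeding, with either a lone drug or a fixed anchor-drug dose plus five library-drug doses (not always all listed) in √10 steps. Nuclei were counted on 4× images after 5 days. Relative viability is the ratio of treated-well to vehicle-well nuclei counts, with each value a median of duplicate plates.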

[1] = compound: CC1=CC=C(C=C1)C(=O)CN2C3=C(CCCC3)SC2=N [Pifithrin_alpha] + COc1cccc2cc(-c3nc([C@H]4CC[C@H](C(=O)O)CC4)n4ncnc(N)c34)[nH]c12 [OSI-027] (partner 0.5 µM)
Outline: as §1

[2] = compound: CC1=CC=C(C=C1)C(=O)CN2C3=C(CCCC3)SC2=N [Pifithrin_alpha] + Nc1ncn([C@H]2C[C@H](O)[C@@H](CO)O2)c(=O)n1 [Decitabine] (partner 2 µM)
Outline: as §1

Bemcentinib + Foretinib = compound: Nc1nc(Nc2ccc3c(c2)CC[C@@H](N2CCCC2)CC3)nn1-c1cc2c(nn1)-c1ccccc1CCC2 [Bemcentinib] + COc1cc2c(Oc3ccc(NC(=O)C4(C(=O)Nc5ccc(F)cc5)CC4)cc3F)ccnc2cc1OCCCN1CCOCC1 [Foretinib] (partner 0.25 µM)
Outline: as §1

Cell Line | relative viability (Axitinib + Decitabine; first compound 0.005 µM) | relative viability (Axitinib + Decitabine; first compound 0.05 µM) | relative viability (Axitinib + Decitabine; first compound 0.1581 µM) | relative viability (Axitinib + Decitabine; first compound 0.5 µM) | relative viability ([1]; first compound 1 µM) | relative viability ([1]; first compound 3.162 µM) | relative viability ([1]; first compound 10 µM) | relative viability ([1]; first compound 31.62 µM) | relative viability ([1]; first compound 100 µM) | relative viability ([2]; first compound 3.162 µM) | relative viability ([2]; first compound 31.62 µM) | relative viability ([2]; first compound 100 µM) | relative viability (Bemcentinib + Foretinib; first compound 0.04 µM) | relative viability (Bemcentinib + Foretinib; first compound 0.1265 µM) | relative viability (Bemcentinib + Foretinib; first compound 0.4 µM) | relative viability (Bemcentinib + Foretinib; first compound 1.265 µM) | relative viability (Bemcentinib + Foretinib; first compound 4 µM) | relative viability (Axitinib + Decitabine; first compound 0.01581 µM) | relative viability ([2]; first compound 1 µM) | relative viability ([2]; first compound 10 µM)
PC-3 [JPC-3] | 0.865 | 0.826 | 0.889 | 0.824 | 0.676 | 0.747 | 0.574 | 0.545 | 0.618 | 0.742 | 0.714 | 0.642 | 1.07 | 1.05 | 1.1 | 0.992 | 1.03 |  |  | 
PC-14 | 0.239 | 0.231 | 0.203 | 0.194 | 0.822 | 0.889 | 0.827 | 0.464 | 0.605 | 0.184 | 0.155 | 0.123 | 1.07 | 0.907 | 1 | 0.959 | 1.02 | 0.219 | 0.236 | 0.219
RERF-LC-KJ | 0.663 | 0.67 | 0.596 | 0.738 | 0.586 | 0.477 | 0.421 | 0.393 | 0.317 | 0.621 | 0.382 | 0.451 | 0.943 | 0.941 | 0.919 | 0.829 | 0.984 | 0.694 | 0.681 | 0.562
SK-LU-1 | 0.64 | 0.618 | 0.582 | 0.598 | 0.353 | 0.353 | 0.354 |  | 0.3 | 0.763 | 0.535 | 0.698 | 0.854 | 0.988 | 0.89 | 0.896 | 0.826 | 0.726 | 0.646 | 0.622
SK-MES-1 | 0.324 | 0.364 | 0.348 | 0.449 | 0.575 | 0.59 | 0.527 | 0.396 | 0.511 | 0.424 | 0.411 | 0.352 | 1.11 | 0.968 | 0.952 | 1.11 | 1.11 | 0.361 | 0.351 | 0.353
SW 900 | 0.428 | 0.477 | 0.4 | 0.602 | 0.399 | 0.648 | 0.502 | 0.342 | 0.357 | 0.381 | 0.389 | 0.447 | 0.827 | 0.948 | 0.976 | 1.05 | 0.974 |  | 0.395 | 0.423
SW 1573 | 0.546 | 0.579 | 0.445 | 0.617 | 0.662 | 0.601 | 0.572 | 0.422 | 0.76 | 0.449 |  | 0.587 | 0.821 | 0.954 | 0.803 | 0.797 | 0.832 | 0.544 | 0.516 | 0.509
UMC-11 | 0.597 | 0.577 | 0.615 | 0.553 | 0.537 | 0.518 | 0.56 | 0.485 | 0.456 | 0.601 | 0.525 | 0.595 | 0.939 | 1.18 | 1.15 | 1.12 | 1.08 | 0.577 | 0.551 | 0.597
